# Data from ChEMBL document CHEMBL4011590, “Structure-activity relationship studies on 3,5-dinitrophenyl tetrazoles as antitubercular agents” (Eur J Med Chem, 2017).
# How the values were obtained:
# Trichosporon asahii [1] = assay: Antifungal activity against Trichosporon asahii 1188 after 48 hrs by broth microdilution method; format: functional; settings: Trichosporon asahii, 1188, 48 h
# [2] = tested on: Staphylococcus epidermidis; assay: Antibacterial activity against Staphylococcus epidermidis HK6966/08 after 48 hrs by broth microdilution method; format: functional; settings: HK6966/08, 48 h
# Klebsiella pneumoniae [3] = assay: Antibacterial activity against Klebsiella pneumoniae HK11750/08 after 24 hrs by broth microdilution method; format: functional; settings: HK11750/08, 24 h
# Mycobacterium kansasii [4] = assay: Antimycobacterial activity against Mycobacterium kansasii isolate 6509/96 after 7 days by micromethod; format: functional; settings: isolate 6509/96, 168 h
# Klebsiella pneumoniae [5] = assay: Antibacterial activity against extended spectrum beta-lactamase producing Klebsiella pneumoniae HK14368/08 after 48 hrs by broth microdilution method; format: functional; settings: HK14368/08, 48 h
# Aspergillus fumigatus [6] = assay: Antifungal activity against Aspergillus fumigatus 231 after 24 hrs by broth microdilution method; format: functional; settings: Aspergillus fumigatus, 231, 24 h
# Escherichia coli [7] = assay: Antibacterial activity against Escherichia coli ATCC 8739 after 24 hrs by broth microdilution method; format: functional; settings: ATCC 8739, 24 h
# [8] = tested on: Mycobacterium tuberculosis; assay: Antimycobacterial activity against Mycobacterium tuberculosis H37Rv CNCTC My 331/88 after 21 days by micromethod; format: functional; settings: H37Rv CNCTC My 331/88, 504 h
# Mycobacterium kansasii [9] = assay: Antimycobacterial activity against Mycobacterium kansasii CNCTC My 235/80 after 7 days by micromethod; format: functional; settings: CNCTC My 235/80, 168 h
# Mycobacterium kansasii [10] = assay: Antimycobacterial activity against Mycobacterium kansasii isolate 6509/96 after 21 days by micromethod; format: functional; settings: isolate 6509/96, 504 h
# Pseudomonas aeruginosa [11] = assay: Antibacterial activity against Pseudomonas aeruginosa ATCC 9027 after 48 hrs by broth microdilution method; format: functional; settings: ATCC 9027, 48 h
# Enterococcus sp. [12] = assay: Antibacterial activity against Enterococcus sp. HK14365/08 after 48 hrs by broth microdilution method; format: functional; settings: HK14365/08, 48 h
# Mycobacterium avium [13] = assay: Antimycobacterial activity against Mycobacterium avium CNCTC My 330/80 after 14 days by micromethod; format: functional; settings: CNCTC My 330/80, 336 h
# Pichia kudriavzevii [14] = assay: Antifungal activity against Candida krusei E28 after 24 hrs by broth microdilution method; format: functional; settings: E28, 24 h
# Staphylococcus aureus [15] = assay: Antibacterial activity against methicillin-resistant Staphylococcus aureus HK5996/08 after 48 hrs by broth microdilution method; format: functional; settings: HK5996/08, 48 h
# Staphylococcus aureus [16] = assay: Antibacterial activity against Staphylococcus aureus ATCC 6538 after 24 hrs by broth microdilution method; format: functional; settings: ATCC 6538, 24 h
# Mycobacterium avium [17] = assay: Antimycobacterial activity against Mycobacterium avium CNCTC My 330/80 after 21 days by micromethod; format: functional; settings: CNCTC My 330/80, 504 h
# Staphylococcus aureus [18] = assay: Antibacterial activity against Staphylococcus aureus ATCC 6538 after 48 hrs by broth microdilution method; format: functional; settings: ATCC 6538, 48 h
# Staphylococcus aureus [19] = assay: Antibacterial activity against methicillin-resistant Staphylococcus aureus HK5996/08 after 24 hrs by broth microdilution method; format: functional; settings: HK5996/08, 24 h
# Klebsiella pneumoniae [20] = assay: Antibacterial activity against extended spectrum beta-lactamase producing Klebsiella pneumoniae HK14368/08 after 24 hrs by broth microdilution method; format: functional; settings: HK14368/08, 24 h
# CHO-K1 = assay: Cytotoxicity against CHOK1 cells after 24 hrs by MTT assay; format: cell-based; settings: Cricetulus griseus, CHO-K1, 24 h
# Aspergillus fumigatus [21] = assay: Antifungal activity against Aspergillus fumigatus 231 after 48 hrs by broth microdilution method; format: functional; settings: Aspergillus fumigatus, 231, 48 h
# [22] = tested on: Trichophyton mentagrophytes; assay: Antifungal activity against Trichophyton mentagrophytes 445 after 120 hrs by broth microdilution method; format: functional; settings: Trichophyton mentagrophytes, 445, 120 h
# Klebsiella pneumoniae [23] = assay: Antibacterial activity against Klebsiella pneumoniae HK11750/08 after 48 hrs by broth microdilution method; format: functional; settings: HK11750/08, 48 h
# Nakaseomyces glabratus [24] = assay: Antifungal activity against Candida glabrata 20/I after 24 hrs by broth microdilution method; format: functional
# Trichosporon asahii [25] = assay: Antifungal activity against Trichosporon asahii 1188 after 24 hrs by broth microdilution method; format: functional; settings: Trichosporon asahii, 1188, 24 h
# [26] = tested on: Mycobacterium tuberculosis; assay: Antimycobacterial activity against Mycobacterium tuberculosis H37Rv CNCTC My 331/88 after 14 days by micromethod; format: functional; settings: H37Rv CNCTC My 331/88, 336 h
# Pseudomonas aeruginosa [27] = assay: Antibacterial activity against Pseudomonas aeruginosa ATCC 9027 after 24 hrs by broth microdilution method; format: functional; settings: ATCC 9027, 24 h
# [28] = tested on: Trichophyton mentagrophytes; assay: Antifungal activity against Trichophyton mentagrophytes 445 after 72 hrs by broth microdilution method; format: functional; settings: Trichophyton mentagrophytes, 445, 72 h
# Candida tropicalis [29] = assay: Antifungal activity against Candida tropicalis 156 after 48 hrs by broth microdilution method; format: functional; settings: Candida tropicalis, 156, 48 h
# Lichtheimia corymbifera [30] = assay: Antifungal activity against Absidia corymbifera 272 after 24 hrs by broth microdilution method; format: functional; settings: Lichtheimia corymbifera, 272, 24 h
# [31] = tested on: Staphylococcus epidermidis; assay: Antibacterial activity against Staphylococcus epidermidis HK6966/08 after 24 hrs by broth microdilution method; format: functional; settings: HK6966/08, 24 h
# Lichtheimia corymbifera [32] = assay: Antifungal activity against Absidia corymbifera 272 after 48 hrs by broth microdilution method; format: functional; settings: Lichtheimia corymbifera, 272, 48 h
# Candida albicans [33] = assay: Antifungal activity against Candida albicans ATCC 44859 after 24 hrs by broth microdilution method; format: functional; settings: ATCC 44859, 24 h
# Mycobacterium kansasii [34] = assay: Antimycobacterial activity against Mycobacterium kansasii CNCTC My 235/80 after 21 days by micromethod; format: functional; settings: CNCTC My 235/80, 504 h
# Pichia kudriavzevii [35] = assay: Antifungal activity against Candida krusei E28 after 48 hrs by broth microdilution method; format: functional; settings: E28, 48 h
# Nakaseomyces glabratus [36] = assay: Antifungal activity against Candida glabrata 20/I after 48 hrs by broth microdilution method; format: functional
# Escherichia coli [37] = assay: Antibacterial activity against Escherichia coli ATCC 8739 after 48 hrs by broth microdilution method; format: functional; settings: ATCC 8739, 48 h
# Candida tropicalis [38] = assay: Antifungal activity against Candida tropicalis 156 after 24 hrs by broth microdilution method; format: functional; settings: Candida tropicalis, 156, 24 h
# Candida albicans [39] = assay: Antifungal activity against Candida albicans ATCC 44859 after 48 hrs by broth microdilution method; format: functional; settings: ATCC 44859, 48 h
# Enterococcus sp. [40] = assay: Antibacterial activity against Enterococcus sp. HK14365/08 after 24 hrs by broth microdilution method; format: functional; settings: HK14365/08, 24 h
# Mycobacterium kansasii [41] = assay: Antimycobacterial activity against Mycobacterium kansasii isolate 6509/96 after 14 days by micromethod; format: functional; settings: isolate 6509/96, 336 h
# Mycobacterium kansasii [42] = assay: Antimycobacterial activity against Mycobacterium kansasii CNCTC My 235/80 after 14 days by micromethod; format: functional; settings: CNCTC My 235/80, 336 h
compound,measurement,setting,value
Cc1ccc(Cn2nnc(-c3cc([N+](=O)[O-])cc([N+](=O)[O-])c3)n2)cc1,MIC,Trichosporon asahii [1],> 500 µM
same,MIC,[2],62.5 µM
same,MIC,Klebsiella pneumoniae [3],> 500 µM
same,MIC99,Mycobacterium kansasii [4],0.25 µM
same,MIC,Klebsiella pneumoniae [5],> 500 µM
same,MIC,Aspergillus fumigatus [6],> 500 µM
same,MIC,Escherichia coli [7],> 500 µM
same,MIC99,[8],0.125 µM
same,MIC99,Mycobacterium kansasii [9],0.5 µM
same,MIC99,Mycobacterium kansasii [10],0.5 µM
same,MIC,Pseudomonas aeruginosa [11],> 500 µM
same,MIC,Enterococcus sp. [12],> 500 µM
same,MIC99,Mycobacterium avium [13],8 µM
same,MIC,Pichia kudriavzevii [14],> 500 µM
same,MIC,Staphylococcus aureus [15],> 500 µM
same,MIC,Staphylococcus aureus [16],31.2 µM
same,MIC99,Mycobacterium avium [17],16 µM
same,MIC,Staphylococcus aureus [18],31.2 µM
same,MIC,Staphylococcus aureus [19],> 500 µM
same,MIC,Klebsiella pneumoniae [20],> 500 µM
same,IC50,CHO-K1,200 µM
same,MIC,Aspergillus fumigatus [21],> 500 µM
same,MIC,[22],> 500 µM
same,MIC,Klebsiella pneumoniae [23],> 500 µM
same,MIC,Nakaseomyces glabratus [24],> 500 µM
same,MIC,Trichosporon asahii [25],> 500 µM
same,MIC99,[26],0.125 µM
same,MIC,Pseudomonas aeruginosa [27],> 500 µM
same,MIC,[28],> 500 µM
same,MIC,Candida tropicalis [29],> 500 µM
same,MIC,Lichtheimia corymbifera [30],> 500 µM
same,MIC,[31],62.5 µM
same,MIC,Lichtheimia corymbifera [32],> 500 µM
same,MIC,Candida albicans [33],> 500 µM
same,MIC99,Mycobacterium kansasii [34],1 µM
same,MIC,Pichia kudriavzevii [35],> 500 µM
same,MIC,Nakaseomyces glabratus [36],> 500 µM
same,MIC,Escherichia coli [37],> 500 µM
same,MIC,Candida tropicalis [38],> 500 µM
same,MIC,Candida albicans [39],> 500 µM
same,MIC,Enterococcus sp. [40],> 500 µM
same,MIC99,Mycobacterium kansasii [41],0.5 µM
same,MIC99,Mycobacterium kansasii [42],1 µM
